# Measured values from ChEMBL document CHEMBL4364276, “Discovery of 4-phenyl-2H-benzo[b][1,4]oxazin-3(4H)-one derivatives as potent and orally active PI3K/mTOR dual inhibitors” (Eur J Med Chem, 2019).
# pIC50: −log10 of the molar value.
# What was measured:
# [1] = target: Phosphatidylinositol 4,5-bisphosphate 3-kinase catalytic subunit alpha isoform (Homo sapiens, UniProt P42336); assay: Inhibition of recombinant human full length N-terminal GST-tagged PI3Kalpha (1 to 1068 residues)/PIK3R1 (1 to 724 residues) expressed in baculovirus expression system using PIP2 as substrate incubated for 1 hr by ADP-Glo assay
# [2] = target: Calcium/calmodulin-dependent protein kinase type 1B (Homo sapiens) (UniProt Q6P2M8); assay: Inhibition of human CAMK1B at 100 nM using KKALRRQETVDAL as substrate by [gamma-33P]-ATP assay
# [3] = target: Calcium/calmodulin-dependent protein kinase kinase 2 (Homo sapiens) (UniProt Q96RR4); assay: Inhibition of human CAMKK2 at 100 nM using MBP as substrate by [gamma-33P]-ATP assay
# [4] = target: CDK3/Cyclin E (Homo sapiens) (UniProt P24864+Q00526); assay: Inhibition of human CDK3/cyclin-E at 100 nM using histone H1 as substrate by [gamma-33P]-ATP assay; format: protein-complex assay
# [5] = target: Serine/threonine-protein kinase Chk2 (Homo sapiens) (UniProt O96017); assay: Inhibition of human CHK2 at 100 nM using KKKVSRSGLYRSPSMPENLNRPR as substrate by [gamma-33P]-ATP assay
# [6] = target: Dual specificity tyrosine-phosphorylation-regulated kinase 1A (Homo sapiens) (UniProt Q13627); assay: Inhibition of human DYRK1A at 100 nM using RRRFRPASPLRGPPK as substrate by [gamma-33P]-ATP assay
# [7] = target: Ephrin type-A receptor 5 (Homo sapiens) (UniProt P54756); assay: Inhibition of human EPHA5 at 100 nM using poly[Glu:Tyr] (4:1) as substrate by [gamma-33P]-ATP assay
# [8] = target: Mitogen-activated protein kinase 3 (Homo sapiens) (UniProt P27361); assay: Inhibition of human ERK1 at 100 nM using MBP as substrate by [gamma-33P]-ATP assay
# [9] = target: Homeodomain-interacting protein kinase 4 (Homo sapiens) (UniProt Q8NE63); assay: Inhibition of human HIPK4 at 100 nM using MBP as substrate by [gamma-33P]-ATP assay
# [10] = target: Serine/threonine-protein kinase STK11 (Homo sapiens) (UniProt Q15831); assay: Inhibition of human LKB1 at 100 nM using LSNLYHQGKFLQTFCGSPLYRRR as substrate by [gamma-33P]-ATP assay
# [11] = target: Serine/threonine-protein kinase MARK2 (Homo sapiens) (UniProt Q7KZI7); assay: Inhibition of human MARK2 isoform 4 at 100 nM using KKKVSRSGLYRSPSMPENLNRPR as substrate by [gamma-33P]-ATP assay
# [12] = target: Maternal embryonic leucine zipper kinase (Homo sapiens) (UniProt Q14680); assay: Inhibition of human MELK at 100 nM using KKLNRTLSFAEPG as substrate by [gamma-33P]-ATP assay
# [13] = target: Dual specificity mitogen-activated protein kinase kinase 6 (Homo sapiens) (UniProt P52564); assay: Inhibition of human MKK6 at 100 nM using p38alpha as substrate by [gamma-33P]-ATP assay
# [14] = target: Serine/threonine-protein kinase 24 (Homo sapiens) (UniProt Q9Y6E0); assay: Inhibition of human MST3 at 100 nM using MBP as substrate by [gamma-33P]-ATP assay
# [15] = target: Serine/threonine-protein kinase Nek2 (Homo sapiens) (UniProt P51955); assay: Inhibition of human NEK2 at 100 nM using MBP as substrate by [gamma-33P]-ATP assay
# [16] = target: Serine/threonine-protein kinase NLK (Homo sapiens) (UniProt Q9UBE8); assay: Inhibition of human NLK at 100 nM using MBP as substrate by [gamma-33P]-ATP assay
# [17] = target: Protein kinase C eta type (Homo sapiens) (UniProt P24723); assay: Inhibition of human PKCeta at 100 nM using ERMRPRKRQGSVRRRV as substrate by [gamma-33P]-ATP assay
# [18] = target: Serine/threonine-protein kinase N1 (Homo sapiens) (UniProt Q16512); assay: Inhibition of human PKN1 at 100 nM using KKLNRTLSVA as substrate by [gamma-33P]-ATP assay
# [19] = target: Serine/threonine-protein kinase PLK2 (Homo sapiens) (UniProt Q9NYY3); assay: Inhibition of human PLK2 at 100 nM using casein as substrate by [gamma-33P]-ATP assay
# [20] = target: Protein-tyrosine kinase 2-beta (Homo sapiens) (UniProt Q14289); assay: Inhibition of human PYK2 at 100 nM using poly[Glu:Tyr] (4:1) as substrate by [gamma-33P]-ATP assay
# [21] = target: RAF proto-oncogene serine/threonine-protein kinase (Homo sapiens) (UniProt P04049); assay: Inhibition of human RAF1 at 100 nM using MEK1 as substrate by [gamma-33P]-ATP assay
# [22] = target: Ribosomal protein S6 kinase alpha-1 (Homo sapiens) (UniProt Q15418); assay: Inhibition of human RSK1 at 100 nM using KKLNRTLSVA as substrate by [gamma-33P]-ATP assay
# [23] = target: Serine/threonine-protein kinase Sgk2 (Homo sapiens) (UniProt Q9HBY8); assay: Inhibition of human SGK2 at 100 nM using KGSGSGRPRTSSFAEG as substrate by [gamma-33P]-ATP assay
# [24] = target: Serine/threonine-protein kinase TAO3 (Homo sapiens) (UniProt Q9H2K8); assay: Inhibition of human TAOK3 at 100 nM using MBP as substrate by [gamma-33P]-ATP assay
# [25] = target: Serine/threonine-protein kinase WNK1 (Homo sapiens) (UniProt Q9H4A3); assay: Inhibition of human WNK1 at 100 nM using MBP as substrate by [gamma-33P]-ATP assay
# [26] = target: Serine/threonine-protein kinase WNK3 (Homo sapiens) (UniProt Q9BYP7); assay: Inhibition of human WNK3 at 100 nM using MBP as substrate by [gamma-33P]-ATP assay
# [27] = target: Tyrosine-protein kinase Yes (Homo sapiens) (UniProt P07947); assay: Inhibition of human YES at 100 nM using poly[Glu:Tyr] (4:1) as substrate by [gamma-33P]-ATP assay
# [28] = target: Mitogen-activated protein kinase kinase kinase 20 (Homo sapiens) (UniProt Q9NYL2); assay: Inhibition of human ZAK at 100 nM using MBP as substrate by [gamma-33P]-ATP assay
# [29] = target: Tyrosine-protein kinase ZAP-70 (Homo sapiens) (UniProt P43403); assay: Inhibition of human ZAP70 at 100 nM using poly[Glu:Tyr] (4:1) as substrate by [gamma-33P]-ATP assay
# [30] = target: [Pyruvate dehydrogenase (acetyl-transferring)] kinase isozyme 1, mitochondrial (Homo sapiens) (UniProt Q15118); assay: Inhibition of human PDK1 at 100 nM using MBP as substrate by [gamma-33P]-ATP assay
# Chain of Homeodomain-interacting protein kinase 4 (Homo sapiens) (Q8NE63 whole entry): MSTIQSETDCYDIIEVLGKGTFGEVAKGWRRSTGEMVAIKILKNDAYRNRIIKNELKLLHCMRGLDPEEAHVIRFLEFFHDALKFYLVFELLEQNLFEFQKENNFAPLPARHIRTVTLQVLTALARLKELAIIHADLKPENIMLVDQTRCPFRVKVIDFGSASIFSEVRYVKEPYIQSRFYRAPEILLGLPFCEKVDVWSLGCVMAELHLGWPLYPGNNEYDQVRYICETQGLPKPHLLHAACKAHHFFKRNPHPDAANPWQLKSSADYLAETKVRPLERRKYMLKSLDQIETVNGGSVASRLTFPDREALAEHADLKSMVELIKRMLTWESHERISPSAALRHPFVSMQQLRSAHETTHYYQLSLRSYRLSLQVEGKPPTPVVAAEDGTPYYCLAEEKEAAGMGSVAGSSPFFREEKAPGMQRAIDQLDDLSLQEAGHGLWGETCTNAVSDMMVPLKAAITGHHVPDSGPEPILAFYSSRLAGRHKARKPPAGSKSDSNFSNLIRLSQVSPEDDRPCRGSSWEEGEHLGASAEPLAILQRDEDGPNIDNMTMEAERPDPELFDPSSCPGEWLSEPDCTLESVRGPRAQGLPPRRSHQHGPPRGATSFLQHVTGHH
# Chain of Protein-tyrosine kinase 2-beta (Homo sapiens) (Q14289 whole entry, looked up): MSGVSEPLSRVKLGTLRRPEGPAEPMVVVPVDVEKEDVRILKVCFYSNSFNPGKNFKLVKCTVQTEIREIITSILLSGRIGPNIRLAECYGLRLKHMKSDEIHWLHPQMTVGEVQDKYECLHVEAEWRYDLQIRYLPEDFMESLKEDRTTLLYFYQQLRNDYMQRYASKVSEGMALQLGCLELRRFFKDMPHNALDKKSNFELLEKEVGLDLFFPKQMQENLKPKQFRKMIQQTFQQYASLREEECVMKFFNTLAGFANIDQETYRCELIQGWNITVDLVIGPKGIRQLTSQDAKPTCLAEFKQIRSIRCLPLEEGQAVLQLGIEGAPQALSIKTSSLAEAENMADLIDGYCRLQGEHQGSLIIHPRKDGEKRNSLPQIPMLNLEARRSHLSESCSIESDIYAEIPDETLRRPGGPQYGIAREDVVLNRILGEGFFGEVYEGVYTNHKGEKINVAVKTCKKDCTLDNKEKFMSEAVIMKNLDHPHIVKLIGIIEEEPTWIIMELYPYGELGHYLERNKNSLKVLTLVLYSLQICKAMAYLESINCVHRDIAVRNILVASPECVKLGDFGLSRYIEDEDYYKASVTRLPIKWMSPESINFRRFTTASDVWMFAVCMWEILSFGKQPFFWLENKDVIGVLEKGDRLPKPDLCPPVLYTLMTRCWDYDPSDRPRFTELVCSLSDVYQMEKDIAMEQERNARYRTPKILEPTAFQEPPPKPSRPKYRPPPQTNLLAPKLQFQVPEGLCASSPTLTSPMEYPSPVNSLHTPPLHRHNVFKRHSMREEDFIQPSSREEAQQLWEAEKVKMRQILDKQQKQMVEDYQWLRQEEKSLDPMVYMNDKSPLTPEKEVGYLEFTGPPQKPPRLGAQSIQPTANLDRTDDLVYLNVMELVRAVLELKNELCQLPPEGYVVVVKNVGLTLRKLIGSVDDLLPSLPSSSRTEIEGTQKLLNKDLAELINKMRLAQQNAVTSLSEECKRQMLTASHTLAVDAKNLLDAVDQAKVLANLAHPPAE
# Chain of RAF proto-oncogene serine/threonine-protein kinase (Homo sapiens) (P04049 whole entry): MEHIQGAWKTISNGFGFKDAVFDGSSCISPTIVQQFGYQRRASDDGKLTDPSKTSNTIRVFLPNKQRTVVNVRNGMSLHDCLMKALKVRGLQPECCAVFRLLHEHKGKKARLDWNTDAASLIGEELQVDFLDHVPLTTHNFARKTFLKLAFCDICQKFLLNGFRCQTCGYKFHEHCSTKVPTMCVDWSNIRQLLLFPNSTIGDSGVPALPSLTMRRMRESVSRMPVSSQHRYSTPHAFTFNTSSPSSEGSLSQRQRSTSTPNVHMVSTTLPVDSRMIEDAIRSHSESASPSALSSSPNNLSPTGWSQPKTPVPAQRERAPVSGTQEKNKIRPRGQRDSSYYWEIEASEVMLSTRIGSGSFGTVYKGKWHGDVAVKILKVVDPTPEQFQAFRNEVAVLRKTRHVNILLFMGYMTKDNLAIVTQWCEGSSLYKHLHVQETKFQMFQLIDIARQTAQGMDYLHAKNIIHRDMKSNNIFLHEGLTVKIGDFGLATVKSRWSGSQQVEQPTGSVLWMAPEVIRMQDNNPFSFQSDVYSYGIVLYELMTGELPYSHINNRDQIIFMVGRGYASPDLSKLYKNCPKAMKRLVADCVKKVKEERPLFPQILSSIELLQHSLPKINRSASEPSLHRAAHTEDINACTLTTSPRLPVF
# Chain of Serine/threonine-protein kinase TAO3 (Homo sapiens) (Q9H2K8 whole entry): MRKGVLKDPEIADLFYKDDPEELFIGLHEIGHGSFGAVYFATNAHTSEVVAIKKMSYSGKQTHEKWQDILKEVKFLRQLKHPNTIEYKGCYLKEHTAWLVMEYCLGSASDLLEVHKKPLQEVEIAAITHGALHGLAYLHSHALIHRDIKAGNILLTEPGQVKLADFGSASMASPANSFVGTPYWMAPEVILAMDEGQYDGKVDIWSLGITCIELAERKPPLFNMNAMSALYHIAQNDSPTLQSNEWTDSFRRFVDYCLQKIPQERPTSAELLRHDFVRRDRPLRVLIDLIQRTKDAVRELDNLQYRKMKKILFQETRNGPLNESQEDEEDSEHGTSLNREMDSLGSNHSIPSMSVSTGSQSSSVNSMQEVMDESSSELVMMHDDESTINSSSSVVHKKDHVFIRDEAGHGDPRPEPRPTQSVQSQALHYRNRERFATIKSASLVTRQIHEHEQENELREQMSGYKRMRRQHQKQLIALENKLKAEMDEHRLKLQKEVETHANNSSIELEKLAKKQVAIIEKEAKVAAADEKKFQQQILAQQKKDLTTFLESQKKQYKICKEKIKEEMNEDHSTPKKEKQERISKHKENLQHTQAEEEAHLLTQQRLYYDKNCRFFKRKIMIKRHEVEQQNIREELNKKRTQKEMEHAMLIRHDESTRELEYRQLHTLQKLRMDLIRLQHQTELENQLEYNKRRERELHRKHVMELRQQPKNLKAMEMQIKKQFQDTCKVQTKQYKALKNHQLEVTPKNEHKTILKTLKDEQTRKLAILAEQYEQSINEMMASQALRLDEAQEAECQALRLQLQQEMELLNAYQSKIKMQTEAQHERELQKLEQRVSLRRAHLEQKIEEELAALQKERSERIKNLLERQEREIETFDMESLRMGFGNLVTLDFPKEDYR
# Chain of Serine/threonine-protein kinase Sgk2 (Homo sapiens) (Q9HBY8 whole entry): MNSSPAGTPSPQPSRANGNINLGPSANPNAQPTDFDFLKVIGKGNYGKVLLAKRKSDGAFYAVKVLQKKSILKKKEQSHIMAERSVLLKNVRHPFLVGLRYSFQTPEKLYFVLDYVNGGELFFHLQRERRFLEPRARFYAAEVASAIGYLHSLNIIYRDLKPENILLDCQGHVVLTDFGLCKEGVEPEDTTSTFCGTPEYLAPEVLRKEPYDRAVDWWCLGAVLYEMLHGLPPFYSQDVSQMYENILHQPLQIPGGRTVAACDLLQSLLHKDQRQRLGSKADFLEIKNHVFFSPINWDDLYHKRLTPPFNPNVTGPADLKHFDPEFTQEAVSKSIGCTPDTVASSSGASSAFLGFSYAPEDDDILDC
# Chain of Serine/threonine-protein kinase Chk2 (Homo sapiens) (O96017 whole entry): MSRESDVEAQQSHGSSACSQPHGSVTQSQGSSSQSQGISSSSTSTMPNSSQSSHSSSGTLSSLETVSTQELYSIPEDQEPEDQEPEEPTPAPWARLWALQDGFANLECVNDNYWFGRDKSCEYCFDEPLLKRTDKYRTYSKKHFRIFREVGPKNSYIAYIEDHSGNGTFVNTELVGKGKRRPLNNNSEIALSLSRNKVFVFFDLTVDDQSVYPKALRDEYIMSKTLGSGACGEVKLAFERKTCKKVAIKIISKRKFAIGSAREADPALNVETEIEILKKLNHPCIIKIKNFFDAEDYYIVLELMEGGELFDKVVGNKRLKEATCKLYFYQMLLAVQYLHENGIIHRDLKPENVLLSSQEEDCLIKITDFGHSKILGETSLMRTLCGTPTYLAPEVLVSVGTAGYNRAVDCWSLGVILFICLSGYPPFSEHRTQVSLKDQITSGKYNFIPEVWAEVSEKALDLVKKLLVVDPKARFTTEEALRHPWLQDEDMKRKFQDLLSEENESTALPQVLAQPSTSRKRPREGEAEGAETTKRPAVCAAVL
# Chain of Serine/threonine-protein kinase STK11 (Homo sapiens) (Q15831 whole entry, canonical isoform): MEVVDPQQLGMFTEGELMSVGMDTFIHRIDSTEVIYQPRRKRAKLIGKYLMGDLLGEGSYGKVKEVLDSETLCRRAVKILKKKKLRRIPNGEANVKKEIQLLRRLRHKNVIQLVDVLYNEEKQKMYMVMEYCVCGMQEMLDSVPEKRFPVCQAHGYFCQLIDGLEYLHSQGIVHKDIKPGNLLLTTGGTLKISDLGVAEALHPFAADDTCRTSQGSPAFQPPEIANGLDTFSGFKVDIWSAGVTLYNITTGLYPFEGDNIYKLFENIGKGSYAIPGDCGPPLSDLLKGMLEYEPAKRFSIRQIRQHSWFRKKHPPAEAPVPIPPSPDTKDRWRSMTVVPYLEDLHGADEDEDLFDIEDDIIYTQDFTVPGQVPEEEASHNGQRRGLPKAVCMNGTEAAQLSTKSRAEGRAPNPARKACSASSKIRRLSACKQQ
# Chain of Serine/threonine-protein kinase Nek2 (Homo sapiens) (P51955 whole entry): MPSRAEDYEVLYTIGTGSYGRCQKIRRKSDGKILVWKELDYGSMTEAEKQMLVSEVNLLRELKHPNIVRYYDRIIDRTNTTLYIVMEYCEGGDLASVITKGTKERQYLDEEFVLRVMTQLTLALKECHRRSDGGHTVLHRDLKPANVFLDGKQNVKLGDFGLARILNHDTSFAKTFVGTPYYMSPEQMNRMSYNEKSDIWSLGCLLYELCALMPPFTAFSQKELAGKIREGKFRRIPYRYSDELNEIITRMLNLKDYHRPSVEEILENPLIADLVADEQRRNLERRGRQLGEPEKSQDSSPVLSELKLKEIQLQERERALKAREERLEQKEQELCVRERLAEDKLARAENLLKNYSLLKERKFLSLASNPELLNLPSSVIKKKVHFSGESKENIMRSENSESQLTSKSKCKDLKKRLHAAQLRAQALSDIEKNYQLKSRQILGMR
structure (smiles),measurement,setting,value
COc1ccc(N2C(=O)COc3ccc(-c4cnc(OC)c(NS(=O)(=O)c5ccc(F)cc5)c4)cc32)cc1,pIC50,[1],9.20
same,inhibition,[2],7.52%
same,inhibition,[3],13.7%
same,inhibition,[4],2.71%
same,inhibition,[5],6.04%
same,inhibition,[6],5.57%
same,inhibition,[7],3.06%
same,inhibition,[8],12.7%
same,inhibition,[9],5.1%
same,inhibition,[10],-3.12%
same,inhibition,[11],1.93%
same,inhibition,[12],9.78%
same,inhibition,[13],4.5%
same,inhibition,[14],10.6%
same,inhibition,[15],20.4%
same,inhibition,[16],10.8%
same,inhibition,[17],18%
same,inhibition,[18],16.8%
same,inhibition,[19],4.64%
same,inhibition,[20],6.22%
same,inhibition,[21],-0.03%
same,inhibition,[22],10.8%
same,inhibition,[23],5.89%
same,inhibition,[24],6.13%
same,inhibition,[25],13.9%
same,inhibition,[26],-0.32%
same,inhibition,[27],3.18%
same,inhibition,[28],-6.81%
same,inhibition,[29],-9.69%
same,inhibition,[30],25.8%
